Read-outs that look alike come from different tables or passages of the source.

The target in data set [1] is T1, SaroL-1 (Salpingoeca rosetta, UniProt F2UID9).
T1 construct: gene PTSG_08235; monomeric in solution
Kind of data set: Isothermal titration calorimetry (MicroCal iTC200) at 25 °C in 20 mM Tris/HCl pH 7.5, 100 mM NaCl, ligand titrated into SaroL-1, one-site model with stoichiometry N fixed to 3. The data set is classed as binding. On the procedure: Isothermal Titration Calorimetry (ITC)
ITC experiments were performed with MicroCaliTC200 (Malvern Panalytical). Experiments were carried out at 25 °C ± 0.1 °C. SaroL-1 and ligands samples were prepared in Buffer A. The ITC cell contained SaroL-1 in a concentration range from 0.05 mM to 0.16 mM. The syringe contained the ligand solutions in a concentration from 10 to 50 mM. 2 μL of ligands solutions were injected into the sample cell at intervals of 120 s while stirring at 750 rpm. Integrated heat effects were analysed by nonlinear regression using one site binding model (MicroCal PEAQ-ITC Analysis software). The experimental data were fitted to a theoretical curve, which gave the dissociation constant (Kd) and the enthalpy of binding (∆H).
For orientation: In ITC the heat of successive injections is recorded.

Data set [2] deals with T2, hemolytic activity of SaroL-1 on rabbit erythrocytes (Salpingoeca rosetta, UniProt F2UID9).
T2 sequence (F2UID9 1-329): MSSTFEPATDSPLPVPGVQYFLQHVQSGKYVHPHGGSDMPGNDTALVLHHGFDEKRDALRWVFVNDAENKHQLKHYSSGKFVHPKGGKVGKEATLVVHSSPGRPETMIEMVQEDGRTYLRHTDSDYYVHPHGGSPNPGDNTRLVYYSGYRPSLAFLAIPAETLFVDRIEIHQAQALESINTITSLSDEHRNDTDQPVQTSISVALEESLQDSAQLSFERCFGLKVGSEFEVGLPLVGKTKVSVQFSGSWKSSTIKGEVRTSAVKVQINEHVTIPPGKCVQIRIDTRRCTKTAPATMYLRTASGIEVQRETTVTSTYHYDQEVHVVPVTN
Kind of data set: Inhibition of hemolytic activity (IHA) of SaroL-1 by carbohydrates. In kind it is cell-based. Particulars: for inhibition: SaroL-1 217 nM, read-out: Mean % inhibition of hemolysis. On the procedure: (§1) Both HA and IHA assays were performed in U-shaped 96-well microtiter plates. In both cases, a control negative experiment was performed with Buffer A added to erythrocyte solution (2% final concentration), and the resulting value was subtracted from all data.
(§2) IHA was performed in U-shaped 96-well microtiter plates. […] 4% rabbit erythrocytes were added to the mixture in a 1:1 ratio and incubated for 1–2 h at 37 °C. The samples were centrifuged, 2600 × g for 15 min at RT, and the absorbance of the supernatant was measured at 540 nm by a Tecan reader.

Data set [3] deals with T1, SaroL-1. Put plainly: Inhibition of SaroL-1 (217 nM) induced hemolysis of rabbit erythrocytes after 1 h pre-incubation of lectin with sugar at RT, then 1-2 h at 37 °C, absorbance of supernatant at 540 nm. In kind it is cell-based. Particulars: n = 2. On the procedure: Hemolytic assay (HA) and inhibition of hemolytic activity (IHA)
as §1, §2

For data set [4], the system named is SaroL-1. Put plainly: Isothermal titration calorimetry of galactosyl-ligands with SaroL-1. In kind it is binding, Salpingoeca rosetta. Particulars: ITC.

On to `OC[C@H]1O[C@H](O[C@H]2[C@@H](O)[C@@H](CO)OC(O)[C@@H]2O)[C@H](O)[C@@H](O)[C@H]1O` (stereo partly drawn) [αGal1-3Gal, α-D-galactopyranosyl-(1-3)-D-galactose], for which binding in data set [1] was characterised by a dissociation constant (Kd) of 1380 µM.
For the compound `CC(=O)N[C@H]1C(O)O[C@H](CO)[C@H](O)[C@@H]1O` (stereo partly shown) [GalNAc, N-acetylgalactosamine], the inhibition in data set [2] (sugar 0.003 mM) is 3.76%; in data set [2] (sugar 0.006 mM), 7.37%; in data set [2] (sugar 0.0125 mM), 8.89%; in data set [2] (sugar 0.025 mM), 4%; in data set [2] (sugar 0.05 mM), 2.33%; in data set [2] (sugar 0.1 mM), 6.61%. The inhibition in data set [2] (sugar 0.2 mM) amounted to 6.57%; in data set [2] (sugar 0.4 mM) it was 9.48%; in data set [2] (sugar 0.8 mM) it was 14.5%; in data set [2] (sugar 1.6 mM), 27.3%; in data set [2] (sugar 3.125 mM) it was 42.5%; in data set [2] (sugar 6.25 mM), 64%. In addition, the inhibition came to 83.1% in data set [2] (sugar 12.5 mM), 98.8% in data set [2] (sugar 25 mM) and 100% in data set [2] (sugar 50 mM). In addition, in data set [1], the dissociation constant (Kd) was 2760 µM. This compound also displayed an IC50 in data set [3] of 4900 µM.
Consider `OC[C@H]1O[C@H](OCC2O[C@@H](O)[C@H](O)[C@@H](O)[C@@H]2O)[C@H](O)[C@@H](O)[C@H]1O` (stereo partly shown) [melibiose], for which the “inhibition of hemolysis (in words)” value in data set [2] (10 mM carbohydrate) is reported as “complete inhibition”. The inhibition was determined as 0.665% in data set [2] (sugar 0.003 mM); 2.27% in data set [2] (sugar 0.006 mM); 3.73% in data set [2] (sugar 0.0125 mM); 7.43% in data set [2] (sugar 0.025 mM); 7.01% in data set [2] (sugar 0.05 mM); 9.7% in data set [2] (sugar 0.1 mM). Further, the inhibition in data set [2] (sugar 0.2 mM) was 15.2%; in data set [2] (sugar 0.4 mM), 22.7%; in data set [2] (sugar 0.8 mM) it was 36.1%; in data set [2] (sugar 1.6 mM), 54.5%; in data set [2] (sugar 3.125 mM), 76.3%; in data set [2] (sugar 6.25 mM), 91.8%. Moreover, the inhibition in data set [2] (sugar 12.5 mM), in data set [2] (sugar 25 mM) and in data set [2] (sugar 50 mM) was 100% in each case.
In data set [1], `CO[C@H]1O[C@H](CO)[C@H](O)[C@H](O)[C@H]1O` [GalαOMe, α-methyl galactoside] registered an equilibrium dissociation constant (Kd) of 2170 µM.
As for `OC[C@H]1O[C@@H](O[C@H]2[C@H](O)[C@@H](O)[C@H](O)O[C@@H]2CO)[C@H](O)[C@@H](O)[C@H]1O` [Lactose, lactose], the “binding to SaroL-1 (in words)” value in data set [4] is on record as “very weak binding”. Moreover, the IC50 in data set [2] (SaroL-1 217 nM pre-incubated with carbohydrate, read-out: IC50 of inhibition of hemolysis) stood at 11900 µM.

One may read the Kd as the equilibrium constant for the complex coming apart. A high value points to lower affinity. Broadly, the inhibition is the change of the read-out against control, counted positive when it falls. One may read the IC50 as the concentration that gives 50% inhibition.

Source of the values: paper PMC9468336, “The choanoflagellate pore-forming lectin SaroL-1 punches holes in cancer cells by targeting the tumor-related glycosphingolipid Gb3” (Communications Biology, 2022).
